Values after ≈ are worked out from the molar mass of the structure shown.
Legend:
Assay type in all cases: functional
Digitaria sanguinalis = experiment: Post-emergence herbicidal activity against Digitaria sanguinalis (hairy crabgrass)
Setaria viridis = experiment: Post-emergence herbicidal activity against Setaria viridis (green foxtail)
Ipomoea purpurea = experiment: Post-emergence herbicidal activity against Ipomoea purpurea (common morning-glory)
Abutilon theophrasti = experiment: Post-emergence herbicidal activity against Abutilon theophrasti (velvetleaf)
Echinochloa crus-galli = experiment: Post-emergence herbicidal activity against Echinochloa crus-galli (barnyard grass)
Phytophthora infestans = experiment: Fungicidal activity against Phytophthora infestans
Plasmopara viticola = experiment: Fungicidal activity against Plasmopara viticola

Row | Compound | ED85 (Digitaria sanguinalis) [g/ha] | ED85 (Setaria viridis) [g/ha] | ED85 (Ipomoea purpurea) [g/ha] | ED85 (Abutilon theophrasti) [g/ha] | ED85 (Echinochloa crus-galli) [g/ha] | EC80 (Phytophthora infestans) [µg/mL] | EC80 (Plasmopara viticola) [µg/mL]
1 | CCn1nnc2ccc(Oc3c(F)cc(C(F)(F)F)cc3Cl)cc21 | >500 | >500 | <32 | <32 | >500 |  | 
2 | CCC#CCOc1ccc(CCNC(=O)[C@@H](NS(C)(=O)=O)C(C)C)cc1OC |  |  |  |  |  | 8 (≈ 19.5 µM) | 2 (≈ 4.87 µM)
3 | CCC#CCOc1ccc(CCNC(=O)[C@H](CCC)NS(C)(=O)=O)cc1OC |  |  |  |  |  | 60 (≈ 146 µM) | 20 (≈ 48.7 µM)
4 | CC(C(=O)O)n1nnc2ccc(Oc3c(F)cc(C(F)(F)F)cc3Cl)cc21 (centres undefined) | 8 | 1 | <0.5 | 1 | 4 |  | 
5 | CCC#CCOc1ccc(CCNC(=O)[C@H](C)NS(C)(=O)=O)cc1OC |  |  |  |  |  | > 200 | > 200
6 | COC(=O)CCn1nnc2ccc(Oc3c(F)cc(C(F)(F)F)cc3Cl)cc21 | <32 | 250 | <32 | <32 | 125 |  | 
7 | COC(=O)Cn1nnc2ccc(Oc3c(F)cc(C(F)(F)F)cc3Cl)cc21 | >8 | 2 | 0.5 | >8 | 4 |  | 
8 | CCC#CCOc1ccc(CCNC(=O)[C@H](CC(C)C)NS(C)(=O)=O)cc1OC |  |  |  |  |  | 12 (≈ 28.3 µM) | 18 (≈ 42.4 µM)
9 | Fc1cc(C(F)(F)F)cc(Cl)c1Oc1ccc2nn[nH]c2c1 | 250 | >500 | <32 | 250 | >500 |  | 
10 | CCC#CCOc1ccc(CCNC(=O)C(NS(C)(=O)=O)C(CC)CC)cc1OC (racemic) |  |  |  |  |  | 16 (≈ 36.5 µM) | 16 (≈ 36.5 µM)
11 | CCC#CCOc1ccc(CCNC(=O)[C@@H](NS(C)(=O)=O)[C@@H](C)CC)cc1OC |  |  |  |  |  | 3 (≈ 7.07 µM) | 2 (≈ 4.71 µM)
12 | CCC#CCOc1ccc(CCNC(=O)C(NS(C)(=O)=O)c2ccc(Cl)cc2)cc1OC (racemic) |  |  |  |  |  | 20 (≈ 41.8 µM) | 15 (≈ 31.3 µM)
13 | CC(C(N)=O)n1nnc2ccc(Oc3c(F)cc(C(F)(F)F)cc3Cl)cc21 (centres undefined) | 63 | 63 | <32 | <32 | 125 |  | 
14 | C#CCn1nnc2ccc(Oc3c(F)cc(C(F)(F)F)cc3Cl)cc21 | 500 | 63 | <32 | 250 | 250 |  | 
15 | CCC#CCOc1ccc(CCNC(=O)[C@@H](NS(C)(=O)=O)[C@@H](C)O)cc1OC |  |  |  |  |  | 148 (≈ 359 µM) | 109 (≈ 264 µM)
16 | COC(=O)[C@H](C)n1nnc2ccc(Oc3c(F)cc(C(F)(F)F)cc3Cl)cc21 | 125 | 125 | <32 | <32 | 63 |  | 
17 | CCC#CCOc1ccc(CCNC(=O)[C@H](CCSC)NS(C)(=O)=O)cc1OC |  |  |  |  |  | > 200 | > 200
18 | C=CCC(NS(C)(=O)=O)C(=O)NCCc1ccc(OCC#CCC)c(OC)c1 (racemic) |  |  |  |  |  | 9 (≈ 22 µM) | 49 (≈ 120 µM)
19 | CCC#CCOc1ccc(CCNC(=O)[C@H](CCC(=O)O)NS(C)(=O)=O)cc1OC |  |  |  |  |  | > 200 | > 200
20 | CCC#CCOc1ccc(CCNC(=O)CNS(C)(=O)=O)cc1OC |  |  |  |  |  | 148 (≈ 402 µM) | > 200
